Experimental data as given in the supplement of paper PMC11061612.

Tests used:
Experiment in all cases: Bliss excess, mean over the matrix (fraction); higher = more synergy
[1] = system: LS-123 (Colorectal Carcinoma)
How it was run: (§1)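 Cell lines grown in DMEM/F12 or RPMI with 10% FBS were plated in 1536-well plates and held 24 hours at 37°C, 5% CO2 before 72 hours of exposure to two-drug dose matrices, with DMSO typically at 0.2%. CellTiter-Glo 2.0 luminescence gave viability, which was converted to inhibition. Vehicle wells were set to 0 and blank wells to 1. Combination Emax is the second-highest inhibition in the matrix, and Bliss excess is the observed combination effect minus the expected EA + EB − EA·EB, where EA and EB are the single-agent effects.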

[2] = system: OV-56 (Ovarian Carcinoma)
How it was run: as §1

[3] = system: ESS-1 (Other Solid Carcinomas)
How it was run: as §1

[4] = system: OE21 (Esophageal Squamous Cell Carcinoma)
How it was run: as §1

[5] = system: EW-11 (Ewing's Sarcoma)
How it was run: as §1

[6] = system: MHH-CALL-2 (B-Lymphoblastic Leukemia)
How it was run: as §1

[7] = system: KS-1 (Glioblastoma)
How it was run: as §1

[8] = system: BE-13 (T-Lymphoblastic Leukemia)
How it was run: as §1

[9] = system: KYAE-1 (Esophageal Adenocarcinoma)
How it was run: as §1

[10] = system: CAL-72 (Osteosarcoma)
How it was run: as §1

COc1nnc2ccc(N3CCC(c4ccc(OCCN5CCN(C)C(=O)[C@H]5C)cc4)CC3)nn12 [AZD5153] + C=CCn1c(=O)c2cnc(Nc3ccc(N4CCN(C)CC4)cc3)nc2n1-c1cccc(C(C)(C)O)n1 [AZD1775] (first compound max 1 µM, partner max 1 µM)
Bliss excess [1]: -0.0445 | Bliss excess [2]: -0.0105 | Bliss excess [3]: -0.0749 | Bliss excess [4]: -0.0497 | Bliss excess [5]: -0.0976 | Bliss excess [6]: -0.0843 | Bliss excess [7]: -0.0308 | Bliss excess [8]: -0.0879 | Bliss excess [9]: -0.0142 | Bliss excess [10]: -0.0524

COc1nnc2ccc(N3CCC(c4ccc(OCCN5CCN(C)C(=O)[C@H]5C)cc4)CC3)nn12 [AZD5153] + CC1(C)CCC(CN2CCN(c3ccc(C(=O)NS(=O)(=O)c4ccc(NCC5CCOCC5)c([N+](=O)[O-])c4)c(Oc4cnc5[nH]ccc5c4)c3)CC2)=C(c2ccc(Cl)cc2)C1 [Venetoclax] (first compound max 1 µM, 7x7, partner max 1 µM)
Bliss excess [1]: 0.0205 | Bliss excess [2]: -0.062 | Bliss excess [3]: -0.017 | Bliss excess [4]: -0.0352 | Bliss excess [5]: -0.117 | Bliss excess [6]: -0.0292 | Bliss excess [7]: -0.0763 | Bliss excess [8]: -0.0428 | Bliss excess [9]: -0.0171 | Bliss excess [10]: -0.0305

COc1nnc2ccc(N3CCC(c4ccc(OCCN5CCN(C)C(=O)[C@H]5C)cc4)CC3)nn12 [AZD5153] + CCN(CCO)CCCOc1ccc2c(Nc3cc(CC(=O)Nc4cccc(F)c4)[nH]n3)ncnc2c1 [AZD2811] (first compound max 1 µM, 7x7, partner max 1 µM)
Bliss excess [1]: -0.0004 | Bliss excess [2]: -0.0288 | Bliss excess [3]: -0.0091 | Bliss excess [4]: -0.0315 | Bliss excess [5]: -0.06 | Bliss excess [6]: 0.0191 | Bliss excess [7]: -0.0317 | Bliss excess [8]: -0.0637 | Bliss excess [9]: -0.0092 | Bliss excess [10]: -0.012

COc1nnc2ccc(N3CCC(c4ccc(OCCN5CCN(C)C(=O)[C@H]5C)cc4)CC3)nn12 [AZD5153] + C[C@@H]1COCCN1C2=NC(=NC(=C2)C3(CC3)[S@](=N)(=O)C)C4=C5C=CNC5=NC=C4 [AZD6738] (first compound max 1 µM, 7x7, partner max 10 µM)
Bliss excess [1]: 0.0091 | Bliss excess [2]: 0.0824 | Bliss excess [3]: -0.0192 | Bliss excess [4]: -0.0266 | Bliss excess [5]: 0.0006 | Bliss excess [6]: -0.0397 | Bliss excess [7]: -0.0349 | Bliss excess [8]: -0.0227 | Bliss excess [9]: -0.003 | Bliss excess [10]: -0.0087

COc1nnc2ccc(N3CCC(c4ccc(OCCN5CCN(C)C(=O)[C@H]5C)cc4)CC3)nn12 [AZD5153] + Cc1c2c(nn1C)CSCc1cc(n(C)n1)CSc1cc(c3ccccc3c1)OCCCc1c(C(=O)O)n(C)c3c-2c(Cl)ccc13 [AZD5991] (first compound max 1 µM, 7x7, partner max 1 µM)
Bliss excess [1]: -0.0249 | Bliss excess [2]: -0.0093 | Bliss excess [3]: 0.0032 | Bliss excess [4]: -0.0089 | Bliss excess [5]: 0.111 | Bliss excess [6]: 0.002 | Bliss excess [7]: -0.0479 | Bliss excess [8]: 0.0075 | Bliss excess [9]: -0.0291 | Bliss excess [10]: 0.0287

COc1nnc2ccc(N3CCC(c4ccc(OCCN5CCN(C)C(=O)[C@H]5C)cc4)CC3)nn12 [AZD5153] + Cn1cnc2c(F)c(Nc3ccc(Br)cc3Cl)c(C(=O)NOCCO)cc21 [Selumetinib] (first compound max 1 µM, 7x7, partner max 10 µM)
Bliss excess [1]: 0.0261 | Bliss excess [2]: -0.0232 | Bliss excess [3]: -0.0065 | Bliss excess [4]: 0.0032 | Bliss excess [5]: -0.0633 | Bliss excess [6]: -0.0438 | Bliss excess [7]: 0.0982 | Bliss excess [8]: -0.0209 | Bliss excess [9]: -0.004 | Bliss excess [10]: -0.0414

Cc1c2c(nn1C)CSCc1cc(n(C)n1)CSc1cc(c3ccccc3c1)OCCCc1c(C(=O)O)n(C)c3c-2c(Cl)ccc13 [AZD5991] + C1CN(CCC1(C(=O)N[C@@H](CCO)C2=CC=C(C=C2)Cl)N)C3=NC=NC4=C3C=CN4 [Capivasertib] (first compound max 1 µM, 7x7, partner max 3 µM)
Bliss excess [1]: 0.0203 | Bliss excess [2]: -0.0006 | Bliss excess [3]: -0.0113 | Bliss excess [4]: 0.0577 | Bliss excess [5]: -0.02 | Bliss excess [6]: 0.0182 | Bliss excess [7]: -0.0181 | Bliss excess [8]: 0.0349 | Bliss excess [9]: -0.0194 | Bliss excess [10]: 0.005

Cc1c2c(nn1C)CSCc1cc(n(C)n1)CSc1cc(c3ccccc3c1)OCCCc1c(C(=O)O)n(C)c3c-2c(Cl)ccc13 [AZD5991] + C=CCn1c(=O)c2cnc(Nc3ccc(N4CCN(C)CC4)cc3)nc2n1-c1cccc(C(C)(C)O)n1 [AZD1775] (first compound max 1 µM, partner max 1 µM)
Bliss excess [1]: -0.0197 | Bliss excess [2]: 0.0126 | Bliss excess [3]: -0.0715 | Bliss excess [4]: -0.0135 | Bliss excess [5]: -0.0011 | Bliss excess [6]: 0.0108 | Bliss excess [7]: -0.0553 | Bliss excess [8]: -0.0097 | Bliss excess [9]: -0.0078 | Bliss excess [10]: 0.0098

Cc1c2c(nn1C)CSCc1cc(n(C)n1)CSc1cc(c3ccccc3c1)OCCCc1c(C(=O)O)n(C)c3c-2c(Cl)ccc13 [AZD5991] + CC1(C)CCC(CN2CCN(c3ccc(C(=O)NS(=O)(=O)c4ccc(NCC5CCOCC5)c([N+](=O)[O-])c4)c(Oc4cnc5[nH]ccc5c4)c3)CC2)=C(c2ccc(Cl)cc2)C1 [Venetoclax] (first compound max 1 µM, 7x7, partner max 1 µM)
Bliss excess [1]: -0.026 | Bliss excess [2]: 0.0077 | Bliss excess [3]: -0.0082 | Bliss excess [4]: 0.0182 | Bliss excess [5]: 0.144 | Bliss excess [6]: 0.0043 | Bliss excess [7]: -0.0307 | Bliss excess [8]: 0.106 | Bliss excess [9]: 0.0049 | Bliss excess [10]: 0.0676

Cc1c2c(nn1C)CSCc1cc(n(C)n1)CSc1cc(c3ccccc3c1)OCCCc1c(C(=O)O)n(C)c3c-2c(Cl)ccc13 [AZD5991] + CCN(CCO)CCCOc1ccc2c(Nc3cc(CC(=O)Nc4cccc(F)c4)[nH]n3)ncnc2c1 [AZD2811] (first compound max 1 µM, 7x7, partner max 1 µM)
Bliss excess [2]: 0.0421 | Bliss excess [3]: -0.0014 | Bliss excess [4]: 0.0345 | Bliss excess [5]: 0.0342 | Bliss excess [6]: 0.0503 | Bliss excess [7]: -0.0459 | Bliss excess [8]: 0.0225 | Bliss excess [9]: 0.0422 | Bliss excess [10]: 0.0582

Cc1c2c(nn1C)CSCc1cc(n(C)n1)CSc1cc(c3ccccc3c1)OCCCc1c(C(=O)O)n(C)c3c-2c(Cl)ccc13 [AZD5991] + CN(C)CCCOc1ccc(-c2ccc3ncc4c(c3c2)n(C2CCOCC2)c(=O)n4C)cn1 [AZD0156] (first compound max 1 µM, 7x7, partner max 1 µM)
Bliss excess [1]: -0.01 | Bliss excess [2]: -0.0276 | Bliss excess [3]: 0.0027 | Bliss excess [4]: 0.0133 | Bliss excess [5]: -0.0946 | Bliss excess [6]: 0.0053 | Bliss excess [7]: -0.0619 | Bliss excess [8]: -0.0285 | Bliss excess [9]: -0.0009 | Bliss excess [10]: 0.0298

Cc1c2c(nn1C)CSCc1cc(n(C)n1)CSc1cc(c3ccccc3c1)OCCCc1c(C(=O)O)n(C)c3c-2c(Cl)ccc13 [AZD5991] + C[C@@H]1COCCN1C2=NC(=NC(=C2)C3(CC3)[S@](=N)(=O)C)C4=C5C=CNC5=NC=C4 [AZD6738] (first compound max 1 µM, 7x7, partner max 10 µM)
Bliss excess [1]: -0.0046 | Bliss excess [2]: 0.0293 | Bliss excess [3]: -0.0451 | Bliss excess [4]: 0.0157 | Bliss excess [5]: 0.0217 | Bliss excess [6]: 0.0225 | Bliss excess [7]: 0.0147 | Bliss excess [8]: 0.0135 | Bliss excess [9]: 0.0054 | Bliss excess [10]: 0.0213

Cc1c2c(nn1C)CSCc1cc(n(C)n1)CSc1cc(c3ccccc3c1)OCCCc1c(C(=O)O)n(C)c3c-2c(Cl)ccc13 [AZD5991] + C[C@@H](Nc1cc(F)cc(F)c1)c1cc(C(=O)N(C)C)cc2c(=O)cc(N3CCOCC3)oc12 [AZD8186] (first compound max 1 µM, 7x7, partner max 3 µM)
Bliss excess [1]: -0.0006 | Bliss excess [2]: 0.017 | Bliss excess [3]: -0.045 | Bliss excess [4]: 0.0258 | Bliss excess [5]: -0.0009 | Bliss excess [6]: -0.0188 | Bliss excess [7]: -0.0129 | Bliss excess [8]: -0.109 | Bliss excess [9]: -0.0125 | Bliss excess [10]: -0.0149

Cc1c2c(nn1C)CSCc1cc(n(C)n1)CSc1cc(c3ccccc3c1)OCCCc1c(C(=O)O)n(C)c3c-2c(Cl)ccc13 [AZD5991] + Cc1cc2ncnn2cc1Nc1ncc2c(n1)n(C1CCOCC1)c(=O)n2C [AZD7648] (first compound max 1 µM, 7x7, partner max 10 µM)
Bliss excess [1]: -0.0378 | Bliss excess [2]: -0.0059 | Bliss excess [3]: -0.0292 | Bliss excess [4]: -0.0387 | Bliss excess [5]: -0.0197 | Bliss excess [6]: -0.011 | Bliss excess [7]: -0.0797 | Bliss excess [8]: 0.0066 | Bliss excess [9]: -0.0285 | Bliss excess [10]: -0.0475

Cc1c2c(nn1C)CSCc1cc(n(C)n1)CSc1cc(c3ccccc3c1)OCCCc1c(C(=O)O)n(C)c3c-2c(Cl)ccc13 [AZD5991] + Cn1cnc2c(F)c(Nc3ccc(Br)cc3Cl)c(C(=O)NOCCO)cc21 [Selumetinib] (first compound max 1 µM, 7x7, partner max 3 µM)
Bliss excess [1]: 0.0196 | Bliss excess [2]: 0.0034 | Bliss excess [3]: 0.0083 | Bliss excess [4]: 0.0286 | Bliss excess [5]: -0.0106 | Bliss excess [6]: 0.111 | Bliss excess [7]: -0.0456 | Bliss excess [8]: 0.0415 | Bliss excess [9]: -0.0155 | Bliss excess [10]: 0.0483

NC1(C(=O)N[C@@H](CCO)c2ccc(Cl)cc2)CCN(c2ncnc3[nH]ccc23)CC1 [Capivasertib] + CC(=O)c1c(C)c2cnc(Nc3ccc(N4CCNCC4)cn3)nc2n(C2CCCC2)c1=O [Palbociclib] (first compound max 10 µM, 7x7, partner max 10 µM)
Bliss excess [1]: -0.0026 | Bliss excess [2]: 0.0301 | Bliss excess [3]: -0.0479 | Bliss excess [4]: 0.0379 | Bliss excess [5]: 0.0121 | Bliss excess [6]: -0.0739 | Bliss excess [7]: -0.0656 | Bliss excess [8]: -0.0485 | Bliss excess [9]: -0.0168 | Bliss excess [10]: 0.0236
